Source: publication PMC4506051, “Pharmacokinetic Profiles of Active Ingredients and Its Metabolites Derived from Rikkunshito, a Ghrelin Enhancer, in Healthy Japanese Volunteers: A Cross-Over, Randomized Study” (PLoS ONE, 2015)

Experiments:
[1] = Exploratory trial: plasma concentration of rikkunshito ingredients after single oral rikkunshito 7.5 g; type: in vivo
Method in brief: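 Plasma and urine levels were measured by LC–MS/MS after one 7.5 g oral dose of rikkunshito. Samples were collected before dosing and at 0.5–8 h for blood, or in 0–4 h and 4–8 h fractions for urine. Synephrine was determined after protein-removal plate cleanup; the other ingredients after β-glucuronidase deconjugation (2 h, 37°C) and SPE.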

[2] = Stability of ingredients in gastric pH solution (pH 1.2, 37°C); type: physicochemical; conditions: pH 1.2
Experimental: Rikkunshito gradually dissolved in acidic solution (pH 1.2) at 37°C, and the concentration of atractylodin after adding 0.25, 0.5, 1, and 2 h was measured by gas chromatography–mass spectrometry.

5-HT2BR = test system: 5-HT2BR; set-up: method as in PMID 18439428; conditions: cited from earlier work
[3] = Formation of ingredients derived from rikkunshito in formulation, blood, and urine (S11 Table summary); conditions: after rikkunshito administration, per ingredient in the formulation

Cmax ([1]; human, in vivo) [ng/mL] | SMILES | Plasma concentration, 0 h ([1]; 0 h (preadministration), single oral rikkunshito 7.5 g, mean ± S.D., n = 4) | Plasma concentration, 0.5 h ([1]; 0.5 h after single oral rikkunshito 7.5 g, mean ± S.D., n = 4) [ng/mL] | Plasma concentration, 1 h ([1]; 1 h after single oral rikkunshito 7.5 g, mean ± S.D., n = 4) [ng/mL] | Plasma concentration, 2 h ([1]; 2 h after single oral rikkunshito 7.5 g, mean ± S.D., n = 4) [ng/mL] | Plasma concentration, 4 h ([1]; 4 h after single oral rikkunshito 7.5 g, mean ± S.D., n = 4) | Plasma concentration, 8 h ([1]; 8 h after single oral rikkunshito 7.5 g, mean ± S.D., n = 4) | Stability in gastric pH solution, Quantitative value ([2]; 0.5 h) [ng/mL] | Stability in gastric pH solution, Quantitative value ([2]; 1 h) [ng/mL] | Stability in gastric pH solution, Quantitative value ([2]; 2 h) [ng/mL] | 5-HT2BR inhibitory/antagonistic activity (5-HT2BR) | Formation of ingredients: form found in Blood [3] | Formation of ingredients: form found in Urine ([3]; BQL = below the quantification limit)
58.2 | CC1(C)[C@@H](O)CC[C@]2(C)[C@H]3C(=O)C=C4[C@@H]5C[C@@](C)(C(=O)O)CC[C@]5(C)CC[C@@]4(C)[C@]3(C)CC[C@@H]12 [18β-Glycyrrhetinic acid] | – | – | – | – | – | – | – | – | – | – | – | –
– | COc1ccc(-c2cc(=O)c3c(OC)c(OC)c(OC)c(OC)c3o2)cc1OC [Nobiletin] | BQL | 0.047 ± 0.0474 | 0.0282 ± 0.0389 | 0.00545 ± 0.0109 | BQL | BQL | 18.1 | 21.5 | 19.6 | most potent 5-HT2BR antagonistic activity among all rikkunshito ingredients | Nobiletin | BQL
